Counter-ions that a name gives are not always drawn. Like-named read-outs stand apart in the source and are kept apart here.
How the values were obtained:
human recombinant ER-β = human recombinant ER-β (Homo sapiens, UniProt Q92731); assay: Solid phase ER binding assay (3H-estradiol competition), ER-β
IL-6 = assay: Human bone cell co-culture system, IL-6 production; format: cell-based
Method: The generation of osteoblastic cells from normal adult femoral travecular bone from patients without evidence of metabolic bone disease was carried out as previously described (Kung Sutherland et al., Osteoporosis International 5:334-343, 1995; Wong et al., J Bone Miner 5:803-813, 1990). Bone fragments were cleaned of adherent tissue and blood and cultured for 4 weeks in medium containing Ham's F12 supplemented with 28 mM HEPES, pH 7.4, 10% FCS, 1.1 mM CaCl2, 2 mM glutamine, and 1% antibiotic-antimycotic agent. Upon confluency, the cells were harvested and immortalized using a retroviral vector (pLXSN) containing the neomycin resistance gene and the human papillomaviral (HPV18) E6 and E7 concogenes (International Journal of Oncology 6:167-174, 1995). The immortalized osteoblastic cells were selected in medium containing G418 (600 μg/ml).
The human U937 moncytic cell line (cloned from the commercially available cells by serial dilution) was maintained in RPMI 1640 medium containing 10% FCS and 1% antibiotic-antimycotic agent.
The co-culture system was established as follows. Human osteoblastic cells were plated in 96-well dishes at a density of 5×10^3 cells/well. U937 cells in RPMI medium (5×10^4 cells/well) were layered over the osteoblasts. The formation of osteoclast-like cells was induced with 100 nM PMA. […]

GM-CSF = assay: Human bone cell co-culture system, GM-CSF production; format: cell-based; settings: co-culture system of Example 8
Method: The co-culture system was established as follows. Human osteoblastic cells were plated in 96-well dishes at a density of 5×10^3 cells/well. U937 cells in RPMI medium (5×10^4 cells/well) were layered over the osteoblasts. The formation of osteoclast-like cells was induced with 100 nM PMA. To determine the effects of compounds or the neutralizing antibodies to IL-6 (Sigma) and GM-CSF (Pharmingen) on the formation of osteoclast-like cells, the compounds or the antibodies were added 30 minutes prior to the addition of PMA. The cultures were stopped after 96 hrs and processed for histochemical or immunohistochemical analyses.

[1] = 3-day immature rat uterine bioassay; settings: s.c.
human recombinant ER-α = molecular target: T1, human recombinant ER-α (Homo sapiens, UniProt P03372); assay: Solid phase ER binding assay (3H-estradiol competition), ER-α; settings: HCl salt; similar to estradiol
T1 sequence (P03372 1-595): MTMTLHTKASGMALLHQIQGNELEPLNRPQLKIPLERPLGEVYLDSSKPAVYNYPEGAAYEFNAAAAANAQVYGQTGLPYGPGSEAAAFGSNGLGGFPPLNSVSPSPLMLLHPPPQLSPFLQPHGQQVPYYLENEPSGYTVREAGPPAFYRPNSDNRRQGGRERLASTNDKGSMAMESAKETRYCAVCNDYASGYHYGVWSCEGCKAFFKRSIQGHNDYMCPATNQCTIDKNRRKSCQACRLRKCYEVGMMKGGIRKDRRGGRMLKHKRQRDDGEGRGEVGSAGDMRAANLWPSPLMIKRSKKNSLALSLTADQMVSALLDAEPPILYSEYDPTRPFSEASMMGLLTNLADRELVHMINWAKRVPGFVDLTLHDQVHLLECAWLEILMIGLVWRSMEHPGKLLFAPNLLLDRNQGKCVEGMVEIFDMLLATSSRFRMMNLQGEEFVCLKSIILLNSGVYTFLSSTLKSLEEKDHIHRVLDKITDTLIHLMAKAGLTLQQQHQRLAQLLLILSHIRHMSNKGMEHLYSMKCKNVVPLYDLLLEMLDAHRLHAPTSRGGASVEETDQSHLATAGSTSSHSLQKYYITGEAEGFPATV

[2] = 28-day uterine bioassay in ovariectomized rats; settings: rat, in vivo
Method: All three componds were administered daily by s.c. injection. Estrogen prevented the uterine weight loss caused by ovariectomy by increasing the uterine weight by 550%. […] Raloxifene.HCl caused about a 70% increase in uterine weight which has been previously reported (Grese et al., supra; Ashby et al., supra). […] Thus, this compound has significant potential for the prevention and/or treatment of cancer and osteoporosis, as well as cardiovascular diseases and neurodegenerative diseases such as Alzheimer's disease.

Chain of human recombinant ER-β (Q92731 whole entry): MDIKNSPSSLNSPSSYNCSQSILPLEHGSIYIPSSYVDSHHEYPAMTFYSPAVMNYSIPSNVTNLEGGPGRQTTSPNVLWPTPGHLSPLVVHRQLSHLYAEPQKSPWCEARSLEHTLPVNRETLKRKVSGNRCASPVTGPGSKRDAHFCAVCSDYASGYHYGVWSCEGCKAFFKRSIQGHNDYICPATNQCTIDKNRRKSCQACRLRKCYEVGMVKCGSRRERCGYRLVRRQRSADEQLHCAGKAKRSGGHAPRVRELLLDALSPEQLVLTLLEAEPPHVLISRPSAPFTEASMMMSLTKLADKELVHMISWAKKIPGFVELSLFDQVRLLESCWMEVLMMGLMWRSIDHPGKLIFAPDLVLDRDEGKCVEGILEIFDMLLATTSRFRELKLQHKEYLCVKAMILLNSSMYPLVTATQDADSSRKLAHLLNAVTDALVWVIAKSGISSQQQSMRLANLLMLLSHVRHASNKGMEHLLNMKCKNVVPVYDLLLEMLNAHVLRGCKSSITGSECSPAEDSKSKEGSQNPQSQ

CCN(CC)CCOc1ccc(-c2c(-c3ccccc3)c(=O)oc3ccccc23)cc1 [L-20, reference compound]
Ki (human recombinant ER-β; ER binding assay of Example 14, read-out: ER Binding Assay ER-β (Ki)): > 10000 nM

C[C@]12CC[C@@H]3c4ccc(O)cc4CC[C@H]3[C@@H]1CC[C@@H]2O [Estradiol, 17β-estradiol]
effect on production of IL-6 (IL-6; co-culture system of Example 8): suppress the production of IL-6 | effect on production of GM-CSF (GM-CSF): reduced the production of GM-CSF | increase in uterine weight [1]: 4.5 fold

O=C(c1ccc(OCCN2CCCCC2)cc1)c1c(-c2ccc(O)cc2)sc2cc(O)ccc12 [Raloxifene HCl]
shape of dose response, uterine weight [1]: bell-shaped dose response | increase in uterine weight ([1]; 1 mg/kg dose): up to 50%

O=c1oc2cc(O)ccc2c(Cc2ccc(OCCN3CCCCC3)cc2)c1-c1ccccc1 (as salt: HCl) [Compound No. 1, 3-Phenyl-4-[4-(2-{piperidin-1-yl})ethoxy]-benzyl-7-hydroxycoumarin]
melting point: 160 to 161 °C

O=c1oc2cc(O)ccc2c(Cc2ccc(OCCN3CCCCC3)cc2)c1-c1ccccc1 [Compound No. 1, 3-Phenyl-4-[4-(2-{piperidin-1-yl})ethoxy]-benzyl-7-hydroxycoumarin]
IC50 (IL-6; U-937, human osteoblast/U937 co-culture, PMA induced, read-out: IC50 with respect to IL-6): 10 nM | binding affinity to ER-α (in words) (human recombinant ER-α): high affinity | binding affinity to ER-β (in words) (human recombinant ER-β; HCl salt, similar to estradiol): high affinity | Ki (human recombinant ER-β; competition with 30 nM 3H-estradiol, room temperature, 1 hour, average of at least 3 experiments, read-out: Solid Phase ER Binding Ki, ER-β): 7.3 nM | increase in uterine weight ([2]; female, sc, 28 day): ~40% | uterine liability [2]: does not exhibit significant uterine liability | increase in uterine weight [1]: ~30% | shape of dose response, uterine weight [1]: bell-shaped dose response

COc1ccc2c(Cc3ccc(OCCN4CCCCC4)cc3)c(-c3ccccc3)c(=O)oc2c1 [Example 4, 3-Phenyl-4-[4-(2-{piperin-1-yl})ethoxy]-benzyl-7-methoxycoumarin]
melting point: 171 to 172 °C

Source: patent US6372739B1, “Compounds and methods for modulation of estrogen receptors” (Signal Pharmaceuticals, Inc., priority 1998, dated 2002)
